In patent US20050002876A1, “Oral care methods and products” (priority 2003, published 2005):

System: human umbilical vein endothelial cells (HUVEC)
Test: Copper-induced IL-8 release from HUVEC (IL-8 ELISA)
Format: cell-based

NCCNCCNCCN [trientine, N,N′-bis(2-aminoethyl)-1,2-ethanediamine]
IL-8 secretion caused by CuCl2 (50 μM CuCl2 + 50, 100, 150 or 250 μM Syprine trientine hydrochloride, 24 hours, serum-free medium): significantly inhibited copper-induced endothelial cell IL-8 secretion

[Cl][Cu][Cl] [CuCl2]
IL-8 secretion as compared to controls incubated with water (50 μM CuCl2, 24 hours): > 2 fold
